Among the data in US8741884B2, “Compounds for the treatment of hepatitis C” (priority 2010, dated 2014) are EC50 values, retold here.

The first test relates to HCV pseudoparticles (genotype 1a HCV E1 and E2 envelope, H77C isolate). The test can be described thus: microbe, parasite or virus in culture. Format: cell-based. As to conditions: Hepatitis C virus, Huh-7, 48 h, class symbol; HCV pseudoparticles genotype 1a (H77C), Huh7 cells, luciferase 2 days after infection, average of duplicates.
On to `CC[C@@H](C)[C@H](NC(=O)c1ccc2cc1OCCCCCCOc1ccc(cc1)CNc1nc(nc(OCC(F)(F)F)n1)N2)C(=O)O` [Example 1404], for which the EC50 (as a rule, the midpoint of the concentration-response curve) was 0.0001 to 0.1 µM.

`O=C(NC(Cc1ccccc1)C(=O)O)c1ccc2cc1OCCCCCCOc1ccc(cc1)CNc1nc(nc(OCC(F)(F)F)n1)N2` (centres unmarked) [Example 1405] returned an EC50 of 0.0001 to 0.1 µM.

Consider `CC(C)(C)OC(=O)N1CCC(C(NC(=O)c2ccc3cc2OCCCCCCOc2ccc(cc2)CNc2nc(nc(OCC(F)(F)F)n2)N3)C(=O)O)CC1` (centres unmarked) [Example 1406], for which the EC50 fell in the range of 0.0001 to 0.1 µM.

`CC(C)(C)OC(=O)N1CCCC1CC(NC(=O)c1ccc2cc1OCCCCCCOc1ccc(cc1)CNc1nc(nc(OCC(F)(F)F)n1)N2)C(=O)O` (centres unmarked) [Example 1407] yielded an EC50 of 0.0001 to 0.1 µM.

As for `O=C(O)CCCCNC(=O)c1ccc2cc1OCCCCCCOc1ccc(cc1)CNc1nc(nc(OCC(F)(F)F)n1)N2` [Example 1408], the EC50 lay in the range of 0.0001 to 0.1 µM.

`CC(C)(C)OC(=O)NC(CNC(=O)c1ccc2cc1OCCCCCCOc1ccc(cc1)CNc1nc(nc(OCC(F)(F)F)n1)N2)C(=O)O` (centres unmarked) [Example 1409] returned an EC50 of 0.0001 to 0.1 µM.

For `CC(C)(C)OC(=O)N1CCC(NC(=O)c2ccc3cc2OCCCCCCOc2ccc(cc2)CNc2nc(nc(OCC(F)(F)F)n2)N3)(C(=O)O)CC1` [Example 1410], the EC50 was in the range of 0.1 to 1 µM.

The compound `CC(C)(C)OC(=O)N[C@@H](CCNC(=O)c1ccc2cc1OCCCCCCOc1ccc(cc1)CNc1nc(nc(OCC(F)(F)F)n1)N2)C(=O)O` [Example 1411] gave an EC50 of 0.0001 to 0.1 µM.

In turn, `CC(C)(C)OC(=O)N[C@H](CCNC(=O)c1ccc2cc1OCCCCCCOc1ccc(cc1)CNc1nc(nc(OCC(F)(F)F)n1)N2)C(=O)O` [Example 1412] registered an EC50 of 0.0001 to 0.1 µM.

`O=C(NCCC[C@H](NC(=O)c1ccc2cc1OCCCCCCOc1ccc(cc1)CNc1nc(nc(OCC(F)(F)F)n1)N2)C(=O)O)OCc1ccccc1` [Example 1413] came in with an EC50 of 0.0001 to 0.1 µM.

Turning to `O=C(NCC1CCNC1)c1ccc2cc1OCCCCCCOc1ccc(cc1)CNc1nc(nc(OCC(F)(F)F)n1)N2` (centres unmarked) [Example 1501], the EC50 fell in the range of 0.0001 to 0.1 µM.

`COC(=O)[C@H](CCN)NC(=O)c1ccc2cc1OCCCCCCOc1ccc(cc1)CNc1nc(nc(OCC(F)(F)F)n1)N2` [Example 1502] displayed an EC50 of 0.0001 to 0.1 µM.

For `O=C(NCC1CCCN1)c1ccc2cc1OCCCCCCOc1ccc(cc1)CNc1nc(nc(OCC(F)(F)F)n1)N2` (centres unmarked) [Example 1503], the EC50 is 0.0001 to 0.1 µM.

On to `O=C(NCC1(C(=O)O)CCNCC1)c1ccc2cc1OCCCCCCOc1ccc(cc1)CNc1nc(nc(OCC(F)(F)F)n1)N2` [Example 1504], for which the EC50 lay in the range of 0.0001 to 0.1 µM.

Consider `CC(C)(C)OC(=O)N1CCCC(C(NC(=O)c2ccc3cc2OCCCCCCOc2ccc(cc2)CNc2nc(nc(OCC(F)(F)F)n2)N3)C(=O)O)C1` (centres unmarked) [Example 1551], for which the EC50 fell in the range of 0.0001 to 0.1 µM.

Compound `O=C(NC(C(=O)O)C1CCCNC1)c1ccc2cc1OCCCCCCOc1ccc(cc1)CNc1nc(nc(OCC(F)(F)F)n1)N2` (centres unmarked) [Example 1552] displayed an EC50 of 0.0001 to 0.1 µM.

As for `NC[C@@H](NC(=O)c1ccc2cc1OCCCCCCOc1ccc(cc1)CNc1nc(nc(OCC(F)(F)F)n1)N2)C(=O)O` [Example 1555], the EC50 lay within 0.1 to 1 µM.

As to `CC(C)(C)OC(=O)NC[C@@H](NC(=O)c1ccc2cc1OCCCCCCOc1ccc(cc1)CNc1nc(nc(OCC(F)(F)F)n1)N2)C(=O)O` [Example 1556], the EC50 fell in the range of 0.1 to 1 µM.

With `CC(C)(C)OC(=O)N1CCC(CNC(=O)c2ccc3cc2OCCCCCCOc2ccc(cc2)CNc2nc(nc(OCC(F)(F)F)n2)N3)(C(=O)O)CC1` [Example 1557], the EC50 lay in the range of 0.1 to 1 µM.

In the case of `CC(C)(C)OC(=O)N1C[C@H](C(=O)O)[C@H](NC(=O)c2ccc3cc2OCCCCCCOc2ccc(cc2)CNc2nc(nc(OCC(F)(F)F)n2)N3)C1` [Example 1558], the EC50 fell in the range of 0.0001 to 0.1 µM.

Regarding `CC(C)(C)OC(=O)NC[C@H](NC(=O)c1ccc2cc1OCCCCCCOc1ccc(cc1)CNc1nc(nc(OCC(F)(F)F)n1)N2)C(=O)O` [Example 1560], the EC50 is 0.0001 to 0.1 µM.

The compound `CC(C)(C)OC(=O)NCC[C@H](NC(=O)c1ccc2cc1OCCCCCCOc1ccc(cc1)CNc1nc(nc(OCC(F)(F)F)n1)N2)C(=O)O` [Example 1561] yielded an EC50 of 0.0001 to 0.1 µM.

Compound `O=C(NC[C@H](NC(=O)c1ccc2cc1OCCCCCCOc1ccc(cc1)CNc1nc(nc(OCC(F)(F)F)n1)N2)C(=O)O)c1ccccc1` [Example 1562] returned an EC50 of 0.0001 to 0.1 µM.

For `N=C(N)NCCC[C@H](NC(=O)c1ccc2cc1OCCOCCOCCOc1ccc(cc1)CNc1nc(nc(OCC(F)(F)F)n1)N2)C(=O)O` [Example 1602], the EC50 fell in the range of 0.0001 to 0.1 µM.

On to `N=C(N)NCCC[C@@H](NC(=O)c1ccc2cc1OCCOCCOCCOc1ccc(cc1)CNc1nc(nc(OCC(F)(F)F)n1)N2)C(=O)O` [Example 1603], for which the EC50 was 0.0001 to 0.1 µM.

As to `COC(=O)[C@H](CNC(=O)OC(C)(C)C)NC(=O)c1ccc2cc1OCCOCCOCCOc1ccc(cc1)CNc1nc(nc(OCC(F)(F)F)n1)N2` [Example 1604], the half-maximal effective concentration (EC50) fell in the range of 0.0001 to 0.1 µM.

In turn, `CC(C)(C)OC(=O)N1CCCC(C(NC(=O)c2ccc3cc2OCCOCCOCCOc2ccc(cc2)CNc2nc(nc(OCC(F)(F)F)n2)N3)C(=O)O)C1` (centres unmarked) [Example 1605] displayed an EC50 of 0.0001 to 0.1 µM.

In turn, `O=C(NC(C(=O)O)C1CCCNC1)c1ccc2cc1OCCOCCOCCOc1ccc(cc1)CNc1nc(nc(OCC(F)(F)F)n1)N2` (centres unmarked) [Example 1606] displayed an EC50 of 0.0001 to 0.1 µM.

Compound `COC(=O)C(NC(=O)c1ccc2cc1OCCOCCOCCOc1ccc(cc1)CNc1nc(nc(OCC(F)(F)F)n1)N2)C1CCCNC1` (centres unmarked) [Example 1607] displayed an EC50 of 0.0001 to 0.1 µM.

Turning to `CC(C)(C)OC(=O)NC[C@H](NC(=O)c1ccc2cc1OCCOCCOCCOc1ccc(cc1)CNc1nc(nc(OCC(F)(F)F)n1)N2)C(=O)O` [Example 1608], the EC50 lay in the range of 0.0001 to 0.1 µM.

`CC(C)(C)OC(=O)NC[C@H](NC(=O)c1ccc2cc1OCCCCCCOc1ccc(cc1)CNc1nc(nc(OCC(F)(F)F)n1)N2)C(N)=O` [Example 1700] showed an EC50 of 0.0001 to 0.1 µM.

Compound `COC(=O)[C@H](CNC(C)=O)NC(=O)c1ccc2cc1OCCCCCCOc1ccc(cc1)CNc1nc(nc(OCC(F)(F)F)n1)N2` [Example 1701] gave an EC50 of 0.0001 to 0.1 µM.

`COC(=O)[C@H](CNS(C)(=O)=O)NC(=O)c1ccc2cc1OCCCCCCOc1ccc(cc1)CNc1nc(nc(OCC(F)(F)F)n1)N2` [Example 1702] gave an EC50 of 0.0001 to 0.1 µM.

In turn, `CNC(=O)NC[C@H](NC(=O)c1ccc2cc1OCCCCCCOc1ccc(cc1)CNc1nc(nc(OCC(F)(F)F)n1)N2)C(=O)OC` [Example 1706] came in with an EC50 of 0.0001 to 0.1 µM.

As for `CNC(=O)NC[C@H](NC(=O)c1ccc2cc1OCCCCCCOc1ccc(cc1)CNc1nc(nc(OCC(F)(F)F)n1)N2)C(=O)O` [Example 1707], the EC50 was in the range of 0.0001 to 0.1 µM.

As to `CC(=O)NC[C@H](NC(=O)c1ccc2cc1OCCCCCCOc1ccc(cc1)CNc1nc(nc(OCC(F)(F)F)n1)N2)C(=O)O` [Example 1711], the EC50 lay within 0.0001 to 0.1 µM.

As for `COC(=O)c1ccc2cc1OCCCCOc1cccc(c1)CNc1nc(nc(OCC(F)(F)F)n1)N2` [Example 1801], the EC50 lay in the range of 0.1 to 1 µM.

Staying with this test, now noted: Hepatitis C virus, Huh-7, 48 h, numeric value; HCV pseudoparticles genotype 1a (H77C), Huh7 cells, luciferase 2 days after infection, average of duplicates.
In the case of `CC(C)(C)OC(=O)N[C@H](CCNC(=O)c1ccc2cc1OCCCCCCOc1ccc(cc1)CNc1nc(nc(OCC(F)(F)F)n1)N2)C(=O)O` [Example 1412], the EC50 was determined as 0.0248 µM.

Turning to `CC(C)(C)OC(=O)NC[C@@H](NC(=O)c1ccc2cc1OCCCCCCOc1ccc(cc1)CNc1nc(nc(OCC(F)(F)F)n1)N2)C(=O)O` [Example 1556], the EC50 was 0.101 µM.

On to `O=C(NC[C@H](NC(=O)c1ccc2cc1OCCCCCCOc1ccc(cc1)CNc1nc(nc(OCC(F)(F)F)n1)N2)C(=O)O)c1ccccc1` [Example 1562], for which the EC50 was 0.0287 µM.

Regarding `CC(C)(C)OC(=O)N1CCCC(C(NC(=O)c2ccc3cc2OCCOCCOCCOc2ccc(cc2)CNc2nc(nc(OCC(F)(F)F)n2)N3)C(=O)O)C1` (centres unmarked) [Example 1605], the response was half-maximal at 0.023 µM (EC50).

Compound `CC(C)(C)OC(=O)NC[C@H](NC(=O)c1ccc2cc1OCCOCCOCCOc1ccc(cc1)CNc1nc(nc(OCC(F)(F)F)n1)N2)C(=O)O` [Example 1608] displayed an EC50 of 0.0562 µM.

The same test, now with this note: read-out: EC50.
On to `O=C(NC(C(=O)O)C1CCNC1)c1ccc2cc1OCCCCCCOc1ccc(cc1)CNc1nc(nc(OCC(F)(F)F)n1)N2` (centres unmarked) [Example 1553], for which the EC50 lay within 0.0001 to 0.1 µM.

`NC[C@H](NC(=O)c1ccc2cc1OCCCCCCOc1ccc(cc1)CNc1nc(nc(OCC(F)(F)F)n1)N2)C(=O)O` [Example 1559]: the EC50 fell in the range of 0.0001 to 0.1 µM.
